Molecules are shown by their SMILES.

The experiment deals with T1, human PPARdelta (Homo sapiens, UniProt Q03181).
T1 construct: amino acids S139-Y441; expressed in transfected cells; host or cells: HEK cells, stably transfected (pcDNA3, CMV promoter)
T1 sequence (Q03181 139-441): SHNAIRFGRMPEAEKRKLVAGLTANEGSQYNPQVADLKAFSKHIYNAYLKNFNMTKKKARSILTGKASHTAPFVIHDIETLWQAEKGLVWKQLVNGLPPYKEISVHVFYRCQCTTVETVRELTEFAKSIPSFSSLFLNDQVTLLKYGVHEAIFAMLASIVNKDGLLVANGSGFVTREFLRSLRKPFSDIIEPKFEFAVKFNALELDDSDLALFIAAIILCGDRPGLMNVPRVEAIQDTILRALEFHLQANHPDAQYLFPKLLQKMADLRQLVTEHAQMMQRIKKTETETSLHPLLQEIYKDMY
Briefly: Cellular PPARdelta assay (stably transfected HEK reporter cell line, luciferase). As to conditions: GR-GAL4-humanPPARdelta-LBD. Format: cell-based. The method, then: The activity of PPARalpha agonists is determined in a 3-day assay which is described below:
The PPARalpha reporter cell line is cultivated to 80% confluence in DMEM (#41965-039, Invitrogen) which is mixed with the following additions: 10% cs-FCS (fetal calf serum; #SH-30068.03, Hyclone), 0.5 mg/ml zeocin (#R250-01, Invitrogen), 0.5 mg/ml G418 (#10131-027, Invitrogen), 1% penicillin-streptomycin solution (#15140-122, Invitrogen) and 2 mM L-glutamine (#25030-024, Invitrogen). The cultivation takes place in standard cell culture bottles (#353112, Becton Dickinson) in a cell culture incubator at 37° C. in the presence of 5% CO2. The 80%-confluent cells are washed once with 15 ml of PBS (#14190-094, Invitrogen), treated with 3 ml of trypsin solution (#25300-054, Invitrogen) at 37° C. for 2 min, taken up in 5 ml of the DMEM described and counted in a cell counter. After dilution to 500.000 cells/ml, 35,000 cells are seeded in each well of a 96 well microtiter plate with a clear plastic base (#3610, Corning Costar). The plates are incubated in the cell culture incubator at 37° C. and 5% CO2 for 24 h.
PPARalpha agonists to be tested are dissolved in DMSO in a concentration of 10 mM. This stock solution is diluted in DMEM (#41965-039, Invitrogen) which is mixed with 5% cs-FCS (#SH-30068.03, Hyclone), 2 mM L-glutamine (#25030-024, Invitrogen) and the previously described antibiotics (zeocin, G418, penicillin and streptomycin). Test substances are tested in 11 different concentrations in the range from 10 μM to 100 pM.
The medium of the PPARalpha reporter cell line seeded on day 1 is completely removed by aspiration, and the test substances diluted in medium are immediately added to the cells. The dilution and addition of the substances is carried out by a robot (Beckman FX). The final volume of the test substances diluted in medium is 100 μl per well of a 96 well microtiter plate. The DMSO concentration in the assay is less than 0.1% v/v in order to avoid cytotoxic effects of the solvent.
The assay plates are incubated in an incubator at 37° C. and 5% CO2 for 24 h.
The PPARalpha reporter cells treated with the test substances are removed from the incubator, and the medium is aspirated off. The cells are lyzed by pipetting 50 μl of Bright Glo reagent (from Promega) into each well of a 96 well microtiter plate. After incubation at room temperature in the dark for 10 minutes, the microtiter plates are measured in the luminometer (Trilux from Wallac). The measuring time for each well of a microtiter plate is 1 sec.
The raw data from the luminometer are transferred into a Microsoft Excel file. Dose-effect plots and EC50 values of PPAR agonists are calculated using the XL.Fit program as specified by the manufacturer (IDBS).
The potency of substances which bind to human PPARdelta and activate it in an agonistic manner is analyzed using a stably transfected HEK cell line (HEK=human embryo kidney) which is referred to here as PPARdelta reporter cell line. In analogy to the assay described for PPARalpha, the PPARdelta reporter cell line also contains two genetic elements, a luciferase reporter element (pdeltaM-GAL4-Luc-Zeo) and a PPARdelta fusion protein (GR-GAL4-humanPPARdelta-LBD) which mediates expression of the luciferase reporter element depending on a PPARdelta ligand. The stably and constitutively expressed fusion protein GR-GAL4-humanPPARdelta-LBD binds in the cell nucleus of the PPARdelta reporter cell line via the GAL4 protein portion to the GAL4 DNA binding motifs 5′-upstream of the luciferase reporter element which is stably integrated in the genome of the cell line. There is only little expression of the luciferase reporter gene in the absence of a PPARdelta ligand if fatty acid-depleted fetal calf serum (cs-FCS) is used in the assay. PPARdelta ligands bind and activate the PPARdelta fusion protein and thereby stimulate expression of the luciferase reporter gene. […]
As usually defined, the EC50 is the concentration needed to bring the measured effect to its halfway point. Compound `CCOc1cc(C(F)(F)F)ccc1C(=O)NC1Cc2ccc(S(=O)(=O)Nc3nnc(C(C)C)s3)cc2C1` (single isomer, unassigned; enantiomer 1) [Example 1.1, 2-Ethoxy-N-[5-(5-isopropyl-[1,3,4]thiadiazol-2-ylsulfamoyl)-indan-2-yl]-4-trifluoromethyl-benzamide (Enantiomer 1)] gave an EC50 of 1 nM.

Regarding `CCOc1cc(C(F)(F)F)ccc1C(=O)NC1Cc2ccc(S(=O)(=O)Nc3nnc(C(C)C)s3)cc2C1` (single isomer, unassigned; enantiomer 2) [Example 1.2, 2-Ethoxy-N-[5-(5-isopropyl-[1,3,4]thiadiazol-2-ylsulfamoyl)-indan-2-yl]-4-trifluoromethyl-benzamide (Enantiomer 2)], the EC50 is 50 nM.

For `CCOc1cc(C(F)(F)F)ccc1C(=O)N[C@@H]1CCc2ccc(S(=O)(=O)Nc3nnc(C(C)C)s3)cc2C1` [Example 6, 2-Ethoxi-N-[(R)-7-(5-isopropyl-[1,3,4]thiadiazol-2-ylsulfamoyl)-1,2,3,4-tetrahydro-naphthalene-2-yl]-4-trifluoromethyl-benzamide], a half-maximal effect (EC50) was put at 600 nM.

As for `CCOc1cc(C(F)(F)F)sc1C(=O)NC1Cc2ccc(S(=O)(=O)Nc3nnc(C(C)C)s3)cc2C1` (stereo not drawn) [Example 11, 3-Ethoxy-5-trifluoromethyl-thiophene-2-carboxylic acid [5-(5-isopropyl-[1,3,4]thiadiazol-2-ylsulfamoyl)-indan-2-yl]-amide], it took 1 nM to reach a half-maximal effect (EC50).

Take `CCOc1cc(C(F)(F)F)ccc1C(=O)NC1Cc2ccc(S(=O)(=O)Nc3nnc(C(C)C)s3)cc2C1` (racemic) [Example 1, 2-Ethoxy-N-[5-(5-isopropyl-[1,3,4]thiadiazol-2-ylsulfamoyl)-indan-2-yl]-4-trifluoromethyl-benzamide]: the concentration for a half-maximal effect (EC50) worked out at 1 nM.

Compound `CCOc1cc(C(F)(F)F)ccc1C(=O)N[C@H]1CCc2ccc(S(=O)(=O)Nc3nnc(C(C)C)s3)cc2C1` [Example 5, 2-Ethoxy-N-[(S)-7-(5-isopropyl-[1,3,4]thiadiazol-2-ylsulfamoyl)-1,2,3,4-tetrahydro-naphthalen-2-yl]-4-trifluoromethyl-benzamide] came in with an EC50 of 600 nM.

Source of the values: patent US7612104B2, “Bicyclic aryl-sulfonic acid [1,3,4]-thiadiazol-2-yl-amides, processes for their preparation, pharmaceutical compositions and methods for their use” (Sanofi-Aventis, priority 2005, dated 2009).
